In patent US9175013B2, “Fused aminodihydrothiazine derivatives” (Eisai R&D Management Co., Ltd., priority 2011, dated 2015):
Read-outs that look alike come from different tables or passages of the source.

Columns and labels:
[1] = target: BACE-1 (Homo sapiens, UniProt P56817); settings: cited from earlier work
[2] = TASTPM mice, cited from earlier work; for brain concentration: oral dose of 250 mg/kg
[3] = tested on: Aβ40; settings: TASTPM mice, cited from earlier work
[4] = tested on: Aβ peptide production in rat primary neuronal culture; assay: In vitro cellular assay: quantification of Aβ peptide in culture of neurons from rat fetus brain; format: cell-based, Wistar rat; settings: Primary cortical neuron; Aβ ELISA, rat primary cortical neurons; Aβ species (x-40 or x-42) not given; read-out: IC50
Protocol: Quantification of Aβ Peptide in Culture of Neurons from Rat Fetus Brain
Primary neuronal cultures were prepared from the cerebral cortex of embryonic day 18 Wistar rats (Charles River, UK). Specifically, the embryos were aseptically removed from pregnant rats under ether anesthesia. The brain was isolated from the embryo and immersed in HBSS (Sigma Aldrich #H9269) containing 10 mM HEPES (Gibco #15630-056). The cerebral cortex was collected from the isolated brain under a stereoscopic microscope. The cerebral cortex fragments collected were enzymatically treated in an enzyme solution containing 0.05% trypsin-EDTA solution (GIBCO, #25300) at 37° C. for 20 minutes to disperse the cells. The cells were then washed twice and then gently resuspended in Neurobasal medium (Gibco #21103) supplemented with 2% B27 supplement (GIBCO #17504-044), 0.5 mM L-glutamine (GIBCO #25030), 1×N2 (GIBCO #17502-048), 100 μg/ml Pen/Strep (GIBCO 15140-122) and 5% heat inactivated FCS (PAA #A15-701). The cell dispersion was filtered through a 40-μm nylon mesh (BD Falcon #352340) to remove the remaining cell mass, and thus a neuronal cell suspension was obtained. The neuronal cell suspension was diluted with the medium above and then plated in a volume of 100 μL/well at an initial cell density of 3.25×10^5 cells/ml in poly-D-lysine coated 96-well culture plate (Greiner #655940). The plated cells were cultured in the culture plate at 37° C. in 5% CO2-95% air for 24 hrs. The total amount of the medium was replaced with ‘assay Neurobasal medium’ (as above excluding heat inactivated FCS), and then the cells were cultured for a further five days.
The drug was added to the culture plate on Day 6 of culture as follows. 8 point compound serial dilutions were generated in DMSO at a concentration of ×1000 that of the final assay concentration (FAC). Compound solutions were then prepared by adding 999 ul of ‘Assay Neurobasal media’ (as described in above section) to 1 ul of DMSO compound stock. The total amount of the medium was removed from each of the cell plate wells, and […] of ‘Assay Neurobasal media’ was added followed by […] of compound solution. The final DMSO concentration was 0.1%. […]
Cell survival was evaluated using an Alamar assay according to the following procedure. […]
Measurement of fluorescence intensity for each well was the carried out at 540/590 nm using a Pherastar plus plate reader (BMG labtech). […]
Human/Rat β Amyloid (42) ELISA Kit Wako (#290-62601) and Human/Rat P Amyloid (40) ELISA Kit Wako (#294-62501) from Wako Pure Chemical Industries, Ltd. were used for Aβ ELISA. […] The results were shown as percentage of the control groups and IC50 values for each compound were determined using four parameter logistic fit model using the XLFIT5 software package (IDBS).

Sequence of BACE-1 (P56817 46-501, species assumed): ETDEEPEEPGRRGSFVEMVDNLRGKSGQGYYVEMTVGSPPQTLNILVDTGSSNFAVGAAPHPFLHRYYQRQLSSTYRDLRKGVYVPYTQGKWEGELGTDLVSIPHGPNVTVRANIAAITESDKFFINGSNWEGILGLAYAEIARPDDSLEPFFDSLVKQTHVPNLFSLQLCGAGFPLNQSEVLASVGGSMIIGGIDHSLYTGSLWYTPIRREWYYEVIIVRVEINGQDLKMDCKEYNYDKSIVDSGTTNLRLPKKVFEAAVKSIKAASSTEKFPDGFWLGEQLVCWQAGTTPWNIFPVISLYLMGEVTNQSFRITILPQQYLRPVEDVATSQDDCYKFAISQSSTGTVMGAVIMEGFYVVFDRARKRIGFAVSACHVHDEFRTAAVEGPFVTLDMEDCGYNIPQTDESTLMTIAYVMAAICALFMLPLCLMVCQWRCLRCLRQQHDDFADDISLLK

CCNc1cc(C(=O)N[C@@H](Cc2ccccc2)[C@H](O)CNCc2cccc(C(F)(F)F)c2)c(F)c(N2CCCCS2(=O)=O)c1 [GSK188909]
IC50 [1]: 5 nM
increase in CNS penetration by co-administration of a Pgp inhibitor ([2]; 250 mg/kg oral, with vs without GF120918): ~9 fold
brain concentration ([2]; Pgp inhibitor GF120918 dosed 5 hours before): 5.43 µM
brain concentration ([2]; no Pgp inhibitor): 0.62 µM
effect on brain Aβ40 levels ([3]; 250 mg/kg oral dose, absence of a Pgp inhibitor): did not have any effect
reduction in brain Aβ40 levels relative to vehicle-treated mice ([3]; 250 mg/kg oral, Pgp inhibitor co-administered 5 hours prior): 68%

COc1cnc(C(=O)Nc2cc(F)c(F)c([C@]34CO[C@H](C(F)F)[C@H]3CSC(N)=N4)c2)cn1 [Example 1, N-(3-((4aS,5S,7aS)-2-amino-5-(difluoromethyl)-4a,5,7,7a-tetrahydro-4H-furo[3,4-d][1,3]thiazin-7a-yl)-4,5-difluorophenyl)-5-methoxypyrazine-2-carboxamide]
IC50 [4]: 7 nM
